In publication PMC8815882, “Screening the pandemic response box identified benzimidazole carbamates, Olorofim and ravuconazole as promising drug candidates for the treatment of eumycetoma” (PLoS Neglected Tropical Diseases, 2022):
“And” between values parts separate entries of the source, which are not always exact repeats. Equal values may be shown once. Read-outs that look alike come from different tables or passages of the source.

Tested on: M. mycetomatis genome strain MM55
Experiment: CLSI M38-A2 based in vitro susceptibility screening (XTT or resazurin), growth at fixed concentration
Type: cell-based, Madurella mycetomatis
Details: for activity at 25 µM / activity at 100 µM / Percent fungal survival at 100 µM: Madurella mycetomatis; for Percent fungal survival at 100 µM: read-out: Percentage survival at 100um, 100 uM A (second replicate column)
[1] = 25 uM, mean of three, M. mycetomatis MM55, read-out: Percentage survival at 25um, 25 uM mean
[2] = 25 uM, replicate A, M. mycetomatis MM55, read-out: Percentage survival at 25um, 25 um A
[3] = 25 uM, replicate B, M. mycetomatis MM55, read-out: Percentage survival at 25um, 25 uM B
[4] = 25 uM, replicate C, M. mycetomatis MM55, read-out: Percentage survival at 25um, 25 uM C
[5] = 100 uM, mean of three, M. mycetomatis MM55, read-out: Percentage survival at 100um, 100 uM mean
[6] = 100 uM, replicate 1, M. mycetomatis MM55, read-out: Percentage survival at 100um, 100 uM A (first replicate column)
[7] = 100 uM, replicate 2, M. mycetomatis MM55
[8] = 100 uM, replicate 3, M. mycetomatis MM55, read-out: Percentage survival at 100um, 100 uM A (third replicate column)
[9] = 25 uM, mean of three replicates, read-out: Percentage survival at 25um, 25 uM mean
[10] = 25 uM, replicate A, read-out: Percentage survival at 25um, 25 um A
[11] = 25 uM, replicate B, read-out: Percentage survival at 25um, 25 uM B
[12] = 25 uM, replicate C, read-out: Percentage survival at 25um, 25 uM C
[13] = 100 uM, first replicate column, read-out: Percentage survival at 100um, 100 uM A
[14] = 100 uM, mean of three replicates, read-out: Percentage survival at 100um, 100 uM mean
[15] = 100 uM, second replicate column, read-out: Percentage survival at 100um, 100 uM A
[16] = 100 uM, third replicate column, read-out: Percentage survival at 100um, 100 uM A
[17] = 25 uM, mean of replicates, read-out: Percentage survival at 25um, 25 uM mean
[18] = 100 uM, mean of replicates, read-out: Percentage survival at 100um, 100 uM mean
[19] = 100 uM, replicate 1, read-out: Percentage survival at 100um, 100 uM A
[20] = 100 uM, replicate 2, read-out: Percentage survival at 100um, 100 uM A
[21] = 100 uM, replicate 3, read-out: Percentage survival at 100um, 100 uM A
[22] = 100 uM, replicate 1, read-out: Percentage survival at 100um, 100 uM A (first replicate column)
[23] = 100 uM, replicate 3, read-out: Percentage survival at 100um, 100 uM A (third replicate column)

Row | Structure (SMILES) | activity at 25 µM [9] [%] | activity at 25 µM [10] [%] | activity at 25 µM [11] [%] | activity at 25 µM [12] [%] | activity at 100 µM [14] [%] | activity at 25 µM [17] [%] | activity at 100 µM [18] [%] | activity at 100 µM [19] [%] | activity at 100 µM [20] [%] | activity at 100 µM [21] [%] | also measured
1 | CC(C)(C)c1ccc(OCCn2nc(C(=O)O)c3ccccc3c2=O)cc1 [MMV1634387] |  |  |  |  |  |  |  |  |  |  | activity at 25 µM [1]: 81.2%; activity at 25 µM [2]: 89.9%; activity at 25 µM [3]: 84.5%; activity at 25 µM [4]: 69.2%; activity at 100 µM [5]: 66.6%; activity at 100 µM [6]: 80.6%; Percent fungal survival at 100 µM [7]: 37.8%; activity at 100 µM [8]: 81.3%
2 | O=c1[nH]c(=O)n(Cc2cccc(Oc3ccccc3)c2)cc1Nc1ccccc1 [MMV1782107] | 91.7 | 75.5 | 83.9 | 116 | 71.8 |  |  |  |  |  | activity at 100 µM [13]: 90.6%; activity at 100 µM [15]: 77.9%; activity at 100 µM [16]: 47.1%
3 | Nc1nc(NC2Cc3ccc(F)cc3C2)nc(N2CCCCC2)n1 (stereo not drawn) [MMV1580839] |  | 58.8 | 53.9 | 9.06 |  | 40.6 | 1.55 | -0.246 | 0.453 | 4.45 | 
4 | CC[C@@H]1C(=O)OC[C@@H]1Cc1cncn1C [MMV002516] |  | 90.3 | 90.6 | 67.2 |  | 82.7 | 73.8 | 82.4 | 85 | 53.9 | 
5 | CC[C@H](CO)Nc1nc(NCc2ccccc2)c2ncn(C(C)C)c2n1 [MMV003820] |  |  |  |  |  |  |  |  |  |  | Percentage survival at 100um, 100 uM A: 50.7482% and 60.4702%; activity at 25 µM (read-out: Percentage survival at 25um, 25 uM B): 62.4%; activity at 25 µM (read-out: Percentage survival at 25um, 25 uM C): 43.5%; activity at 25 µM (read-out: Percentage survival at 25um, 25 uM mean): 63.8%; activity at 25 µM (read-out: Percentage survival at 25um, 25 um A): 85.5%; activity at 100 µM (read-out: Percentage survival at 100um, 100 uM A): 48.1%; activity at 100 µM (read-out: Percentage survival at 100um, 100 uM mean): 53.1%
6 | O=C(Cn1cnc2ccccc2c1=O)Nc1ccccc1 [MMV1578891] | 80.3 | 84 | 82.2 | 74.7 | 83.9 |  |  |  |  |  | activity at 100 µM [22]: 90.8%; Percent fungal survival at 100 µM (100 uM, replicate 2): 79.4%; activity at 100 µM [23]: 81.6%
7 | CC(=O)NC[C@H]1CN(c2ccc(N3CCSCC3)c(F)c2)C(=O)O1 [MMV688756] |  | 94.4 | 99.9 | 94.2 |  | 96.1 | 92.4 | 100 | 85.2 | 91.6 | 
8 | NNC(=O)c1ccncc1 [MMV002169] | 85.6 | 90.1 | 80.7 | 85.9 | 85.3 |  |  |  |  |  | activity at 100 µM [22]: 84.8%; Percent fungal survival at 100 µM (100 uM, replicate 2): 81.9%; activity at 100 µM [23]: 89.3%
9 | CC(C)Nc1ncnc2c1cnn2-c1ccc(Cl)cc1 [MMV108465] |  | 53.4 | 64.9 | 71.1 |  | 63.1 | 22.2 | 0.471 | 1.77 | 64.4 | 
10 | CC[C@@H](CO)NCCN[C@@H](CC)CO [MMV687801] |  | 86.9 | 87.9 | 88.8 |  | 87.9 | 85.7 | 96.9 | 79.4 | 80.8 | 
11 | CCOCc1nc2c(N)nc3ccccc3c2n1CC(C)(C)O [MMV690547] | 98 | 95.3 | 111 | 87.7 | 90.4 |  |  |  |  |  | activity at 100 µM [22]: 97%; Percent fungal survival at 100 µM (100 uM, replicate 2): 86.2%; activity at 100 µM [23]: 87.9%
12 | Nc1nc(-c2ccccc2)nc2[nH]nc(Nc3ccc(C(F)(F)F)cc3)c12 [MMV1633968] |  |  |  |  |  |  |  |  |  |  | activity at 25 µM (25 uM, mean of replicates, MM55, read-out: Percentage survival at 25um, 25 uM mean): 111%; activity at 25 µM (25 uM, replicate A, MM55, read-out: Percentage survival at 25um, 25 um A): 147%; activity at 25 µM (25 uM, replicate B, MM55, read-out: Percentage survival at 25um, 25 uM B): 105%; activity at 25 µM (25 uM, replicate C, MM55, read-out: Percentage survival at 25um, 25 uM C): 80.3%; activity at 100 µM (100 uM, mean of replicates, MM55, read-out: Percentage survival at 100um, 100 uM mean): 86.9%; activity at 100 µM (100 uM, replicate 1, MM55, read-out: Percentage survival at 100um, 100 uM A): 89.5%; activity at 100 µM (100 uM, replicate 2, MM55, read-out: Percentage survival at 100um, 100 uM A): 94%; activity at 100 µM (100 uM, replicate 3, MM55, read-out: Percentage survival at 100um, 100 uM A): 77.2%
13 | OCCCCn1cnc2c(O)nc(NCc3ccc(Cl)c(Cl)c3)nc21 [MMV1593542] |  |  |  |  |  |  |  |  |  |  | activity at 25 µM [1]: 73.1%; activity at 25 µM [2]: 73.4%; activity at 25 µM [3]: 73.3%; activity at 25 µM [4]: 72.6%; activity at 100 µM [5]: 74.4%; activity at 100 µM [6]: 82.6%; Percent fungal survival at 100 µM [7]: 70.6%; activity at 100 µM [8]: 70.1%
14 | O=C1[C@H](CC[C@H](O)c2ccc(F)cc2)[C@@H](c2ccc(O)cc2)N1c1ccc(F)cc1 [MMV1581377] | 91.9 | 82.7 | 93.7 | 99.2 | 43.8 |  |  |  |  |  | activity at 100 µM [13]: -3.71%; activity at 100 µM [15]: 57.6%; activity at 100 µM [16]: 77.4%
15 | CCOC(=O)/C=C/[C@H](C[C@@H]1CCNC1=O)NC(=O)[C@@H](CC(=O)[C@@H](NC(=O)c1cc(C)on1)C(C)C)Cc1ccc(F)cc1 [MMV1580491] | 96.1 | 96.2 | 112 | 79.9 | 93.9 |  |  |  |  |  | activity at 100 µM [22]: 99.7%; Percent fungal survival at 100 µM (100 uM, replicate 2): 86.7%; activity at 100 µM [23]: 95.4%
16 | Clc1cc2nc(C3CCNCC3)n(Cc3ccc(CNCCc4cnc[nH]4)cc3)c2cc1Cl [MMV1580842] |  |  |  |  |  |  |  |  |  |  | activity at 25 µM [1]: 86.1%; activity at 25 µM [2]: 92.3%; activity at 25 µM [3]: 94.9%; activity at 25 µM [4]: 71.1%; activity at 100 µM [5]: 66.3%; activity at 100 µM [6]: 60.7%; Percent fungal survival at 100 µM [7]: 74.3%; activity at 100 µM [8]: 64.1%
17 | NC[C@H]1O[C@H](O[C@H]2[C@H](O)[C@@H](O[C@H]3O[C@H](CO)[C@@H](O)[C@H](N)[C@H]3O)[C@H](N)C[C@@H]2N)[C@H](N)C[C@@H]1O [MMV002459] |  | 96.5 | 69 | 94.3 |  | 86.6 | 63.3 | 89.3 | 40 | 60.6 | 
18 | O=C(Nc1ccc(-c2ccccc2)cc1)C1=C(O)C(Cc2ccccc2)OC1=O (stereo not drawn) [MMV1593531] |  | 71.9 | 72 | 74.7 |  | 72.9 | 74.5 | 74.2 | 70.8 | 78.4 | 
19 | O=C(N[C@H](Cc1cccc2ccccc12)C(=O)NCCc1c[nH]cn1)C1Cc2ccccc2C1 [MMV1782109] |  | 88.1 | 81.3 | 72.6 |  |  |  |  |  |  | activity at 25 µM (25 uM, mean, read-out: Percentage survival at 25um, 25 uM mean): 80.7%; activity at 100 µM (100 uM, mean, read-out: Percentage survival at 100um, 100 uM mean): 67%; activity at 100 µM (100 uM, replicate (first column), read-out: Percentage survival at 100um, 100 uM A): 69.9%; activity at 100 µM (100 uM, replicate (second column), read-out: Percentage survival at 100um, 100 uM A): 67.6%; activity at 100 µM (100 uM, replicate (third column), read-out: Percentage survival at 100um, 100 uM A): 63.4%
20 | Cc1nc2ccc(Cl)cc2c(-c2ccccc2)c1CC(=O)O [MMV1580801] | 86.1 | 87.4 | 94.3 | 76.7 | 83.4 |  |  |  |  |  | activity at 100 µM [13]: 85.8%; activity at 100 µM [15]: 76.8%; activity at 100 µM [16]: 87.5%
